Measurements from patent EP4745151A1, “FIBROBLAST ACTIVATION PROTEIN LIGAND AND USE THEREOF” (Jiangsu Hengrui Pharmaceuticals Co., Ltd., priority 2023, dated 2025).
Where two headings read alike, the source gives them in different places. Numbered stars: 1 amine (or outer) side, 2 acyl side, 3 side chain; on linkers, the order of the positions; unused ones are H or OH. Bridge positions count the residues as written; N and C are the ends. Square brackets hold non-standard residues; d marks the D form. Peptide text beside a SMILES is read from it. * marks the point of attachment. TBMB(SCH2CH2NH-DOTA) = O=C(O)CN1CCN(CC(=O)O)CCN(CC(=O)NCCSCc2cc(C[*:1])cc(C[*:2])c2)CCN(CC(=O)O)CC1; X1 = O=C(O)CN1CCN(CC(=O)O)CCN(CC(=O)NCCSCc2cc(C[*:1])cc(C[*:2])c2)CC1; Phe(2-CF3) = N[C@@H](Cc1ccccc1C(F)(F)F)C(=O)O; Pro(trans-4-F) = O=C(O)[C@@H]1C[C@@H](F)CN1; Phe(3-F) = N[C@@H](Cc1cccc(F)c1)C(=O)O; Phe(4-F) = N[C@@H](Cc1ccc(F)cc1)C(=O)O; Phe(2-F) = N[C@@H](Cc1ccccc1F)C(=O)O; Hyp = O=C(O)[C@@H]1C[C@@H](O)CN1; Hexanoyl = CCCCCC(=O)*; Aib = CC(C)(N)C(=O)O

Experiments:
U-87 MG cells = settings: mouse, in vivo; for Tumour/kidney: B-NDG, iv
Method: (§1) Experimental animals: Germline: B-NDG (Biocytogen Jiangsu Co., Ltd.); Age: 5-8 weeks old; Body weight: 20-24 g.
(§2) A sufficient quantity of U-87 MG cells was prepared and inoculated into the posterior position of the right forelimb of B-NDG mice in an inoculation volume of 100 µl, containing 50% Matrigel and 5 × 10^6 cells. After inoculation, the tumour volume and animal body weight were monitored twice a week. Model mice with a tumour volume between 200 and 500 m^3 were selected for enrolment in this experiment and randomly grouped on the basis of tumour volume.

FAPα = target: T1, FAPα (Homo sapiens, UniProt Q12884); assay: FAPα enzyme activity test; type: biochemical; settings: substrate Z-Gly-Pro-AMC, 37°C
T1 sequence (Q12884 1-760): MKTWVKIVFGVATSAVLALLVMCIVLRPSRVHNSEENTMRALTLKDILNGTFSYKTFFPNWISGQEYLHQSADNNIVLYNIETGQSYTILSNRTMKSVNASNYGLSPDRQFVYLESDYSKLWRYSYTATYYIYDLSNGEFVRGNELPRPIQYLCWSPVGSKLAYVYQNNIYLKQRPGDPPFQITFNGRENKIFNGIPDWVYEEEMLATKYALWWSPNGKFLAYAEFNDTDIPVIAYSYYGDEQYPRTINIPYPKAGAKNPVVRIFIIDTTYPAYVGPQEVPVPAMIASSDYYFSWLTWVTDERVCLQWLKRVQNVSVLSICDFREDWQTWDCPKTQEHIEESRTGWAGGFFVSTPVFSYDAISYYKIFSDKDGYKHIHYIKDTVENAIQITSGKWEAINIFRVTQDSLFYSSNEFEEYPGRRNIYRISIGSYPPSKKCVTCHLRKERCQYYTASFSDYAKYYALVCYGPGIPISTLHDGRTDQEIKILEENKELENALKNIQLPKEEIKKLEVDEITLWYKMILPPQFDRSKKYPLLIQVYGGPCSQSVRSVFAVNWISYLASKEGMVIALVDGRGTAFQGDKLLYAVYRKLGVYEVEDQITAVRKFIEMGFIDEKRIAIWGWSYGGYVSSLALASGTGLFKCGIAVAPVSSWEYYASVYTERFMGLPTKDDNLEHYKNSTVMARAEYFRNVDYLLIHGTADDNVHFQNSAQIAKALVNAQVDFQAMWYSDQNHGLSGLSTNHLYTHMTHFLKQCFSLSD
Method: The substrate (Z-Gly-Pro-AMC) was diluted with DMSO to prepare a 0.5 mM stock solution. Before each experiment, the 0.5 mM stock solution was diluted with PBS to 50 µM for later use. The FAPα protein was diluted with PBS to 0.5 ng/µl for later use. […] The test compounds and positive control were subjected to a 5-fold serial dilution with PBS to obtain 8 gradients for later use, with the highest concentration being 10 µM, and the lowest concentration being […]. Test method: 85 µl of the FAPα dilution and 10 µl of the compound dilution were added to a microplate, uniformly mixed and incubated at 37°C for 10 min. Then, 5 µl of 50 µM substrate was added, uniformly mixed and incubated at 37°C for 10 min. The microplate was read on a microplate reader, with an excitation wavelength of 380 nm and an emission wavelength of 465 nm.

in vivo = settings: B-NDG, mouse, iv, total radioactivity, Tumour/kidney
Method: as §1, §2

`CCCCCC(=O)N[C@H]1CSCc2cc(CSCCNC(=O)CN3CCN(CC(=O)O)CCN(CC(=O)O)CC3)cc(c2)CSC[C@@H](C(=O)O)NC(=O)[C@H](Cc2ccccc2)NC(=O)[C@H](CCC(N)=O)NC(=O)[C@H]([C@@H](C)O)NC(=O)[C@@H]2CCCN2C(=O)[C@@H]2CCCN2C1=O` [Al^18F-NOTA-2286, reference compound] showed a Tumour/kidney (U-87 MG cells; 0.5 h) of 2.57±0.09, a Tumour/kidney (U-87 MG cells; 1.5 h) of 11.24±1.79 and a Tumour/kidney (U-87 MG cells; 3 h) of 10.06±1.60.

`CCCCCC(=O)N[C@H]1CSCc2cc(CSCCNC(=O)CN3CCN(CC(=O)O)CCN(CC(=O)O)CCN(CC(=O)O)CC3)cc(c2)CSC[C@@H](C(=O)O)NC(=O)[C@H](Cc2ccccc2)NC(=O)[C@H](CCC(N)=O)NC(=O)[C@H]([C@@H](C)O)NC(=O)[C@@H]2C[C@@H](O)CN2C(=O)[C@@H]2CCCN2C(=O)C(C)(C)NC1=O` [DOTA-05] (Hexanoyl-C[Aib]P[Hyp]TQFC-OH; linker 1-8 via TBMB(SCH2CH2NH-DOTA)) showed an IC50 (FAPα) of 1.16 nM.

`CCCCCC(=O)N[C@H]1CSCc2cc(CSCCNC(=O)CN3CCN(CC(=O)O)CCN(CC(=O)O)CCN(CC(=O)O)CC3)cc(c2)CSC[C@@H](C(=O)O)NC(=O)[C@H](Cc2ccccc2F)NC(=O)[C@H](CCC(N)=O)NC(=O)[C@H]([C@@H](C)O)NC(=O)[C@@H]2C[C@@H](O)CN2C(=O)[C@@H]2CCCN2C(=O)C(C)(C)NC1=O` [DOTA-06] (Hexanoyl-C[Aib]P[Hyp]TQ[Phe(2-F)]C-OH; linker 1-8 via TBMB(SCH2CH2NH-DOTA)) gave an IC50 (FAPα) of 0.93 nM.

Work on `CCCCCC(=O)N[C@H]1CSCc2cc(CSCCNC(=O)CN3CCN(CC(=O)O)CCN(CC(=O)O)CCN(CC(=O)O)CC3)cc(c2)CSC[C@@H](C(=O)O)NC(=O)[C@H](Cc2cccc(F)c2)NC(=O)[C@H](CCC(N)=O)NC(=O)[C@H]([C@@H](C)O)NC(=O)[C@@H]2C[C@@H](O)CN2C(=O)[C@@H]2CCCN2C(=O)C(C)(C)NC1=O` [DOTA-07] (Hexanoyl-C[Aib]P[Hyp]TQ[Phe(3-F)]C-OH; linker 1-8 via TBMB(SCH2CH2NH-DOTA)) yielded an IC50 (FAPα) of 1.5 nM.

For `CCCCCC(=O)N[C@H]1CSCc2cc(CSCCNC(=O)CN3CCN(CC(=O)O)CCN(CC(=O)O)CCN(CC(=O)O)CC3)cc(c2)CSC[C@@H](C(=O)O)NC(=O)[C@H](Cc2ccc(F)cc2)NC(=O)[C@H](CCC(N)=O)NC(=O)[C@H]([C@@H](C)O)NC(=O)[C@@H]2C[C@@H](O)CN2C(=O)[C@@H]2CCCN2C(=O)C(C)(C)NC1=O` [DOTA-08] (Hexanoyl-C[Aib]P[Hyp]TQ[Phe(4-F)]C-OH; linker 1-8 via TBMB(SCH2CH2NH-DOTA)), the IC50 (FAPα) was 0.53 nM.

In the case of `CCCCCC(=O)N[C@H]1CSCc2cc(CSCCNC(=O)CN3CCN(CC(=O)O)CCN(CC(=O)O)CCN(CC(=O)O)CC3)cc(c2)CSC[C@@H](C(=O)O)NC(=O)[C@H](Cc2ccccc2C(F)(F)F)NC(=O)[C@H](CCC(N)=O)NC(=O)[C@H]([C@@H](C)O)NC(=O)[C@@H]2C[C@@H](O)CN2C(=O)[C@@H]2CCCN2C(=O)C(C)(C)NC1=O` [DOTA-09] (Hexanoyl-C[Aib]P[Hyp]TQ[Phe(2-CF3)]C-OH; linker 1-8 via TBMB(SCH2CH2NH-DOTA)), the IC50 (FAPα) is reported as 0.28 nM.

In the case of `CCCCCC(=O)N[C@H]1CSCc2cc(CSCCNC(=O)CN3CCN(CC(=O)O)CCN(CC(=O)O)CCN(CC(=O)O)CC3)cc(c2)CSC[C@@H](C(=O)O)NC(=O)[C@H](Cc2ccccc2)NC(=O)[C@H](CCC(N)=O)NC(=O)[C@H]([C@@H](C)O)NC(=O)[C@@H]2C[C@@H](F)CN2C(=O)[C@@H]2CCCN2C(=O)C(C)(C)NC1=O` [DOTA-12] (Hexanoyl-C[Aib]P[Pro(trans-4-F)]TQFC-OH; linker 1-8 via TBMB(SCH2CH2NH-DOTA)), the IC50 (FAPα) is reported as 1.08 nM.

For `CCCCCC(=O)N[C@H]1CSCc2cc(CSCCNC(=O)CN3CCN(CC(=O)O)CCN(CC(=O)O)CCN(CC(=O)O)CC3)cc(c2)CSC[C@@H](C(=O)O)NC(=O)[C@H](Cc2ccccc2F)NC(=O)[C@H](CCC(N)=O)NC(=O)[C@H]([C@@H](C)O)NC(=O)[C@@H]2C[C@@H](F)CN2C(=O)[C@@H]2CCCN2C(=O)C(C)(C)NC1=O` [DOTA-13] (Hexanoyl-C[Aib]P[Pro(trans-4-F)]TQ[Phe(2-F)]C-OH; linker 1-8 via TBMB(SCH2CH2NH-DOTA)), the IC50 (FAPα) was 1.09 nM.

For `CCCCCC(=O)N[C@H]1CSCc2cc(CSCCNC(=O)CN3CCN(CC(=O)O)CCN(CC(=O)O)CCN(CC(=O)O)CC3)cc(c2)CSC[C@@H](C(=O)O)NC(=O)[C@H](Cc2ccccc2)NC(=O)[C@H](CCC(N)=O)NC(=O)[C@H]([C@@H](C)O)NC(=O)[C@@H]2CCCN2C(=O)[C@@H]2CCCN2C1=O` [FAP-2286, reference compound], the IC50 (FAPα) was 11.7 nM.

Compound `CCCCCC(=O)N[C@H]1CSCc2cc(CSCCNC(=O)CN3CCN(CC(=O)O)CCN(CC(=O)O)CC3)cc(c2)CSC[C@@H](C(=O)O)NC(=O)[C@H](Cc2ccccc2)NC(=O)[C@H](CCC(N)=O)NC(=O)[C@H]([C@@H](C)O)NC(=O)[C@@H]2C[C@@H](O)CN2C(=O)[C@@H]2CCCN2C(=O)C(C)(C)NC1=O` [NOTA-05] (Hexanoyl-C[Aib]P[Hyp]TQFC-OH; linker 1-8 via X1) has an IC50 (FAPα) of 0.45 nM.

For `CCCCCC(=O)N[C@H]1CSCc2cc(CSCCNC(=O)CN3CCN(CC(=O)O)CCN(CC(=O)O)CC3)cc(c2)CSC[C@@H](C(=O)O)NC(=O)[C@H](Cc2ccccc2F)NC(=O)[C@H](CCC(N)=O)NC(=O)[C@H]([C@@H](C)O)NC(=O)[C@@H]2C[C@@H](O)CN2C(=O)[C@@H]2CCCN2C(=O)C(C)(C)NC1=O` [NOTA-06] (Hexanoyl-C[Aib]P[Hyp]TQ[Phe(2-F)]C-OH; linker 1-8 via X1), the IC50 (FAPα) was 0.088 nM.

Work on `CCCCCC(=O)N[C@H]1CSCc2cc(CSCCNC(=O)CN3CCN(CC(=O)O)CCN(CC(=O)O)CC3)cc(c2)CSC[C@@H](C(=O)O)NC(=O)[C@H](Cc2ccccc2)NC(=O)[C@H](CCC(N)=O)NC(=O)[C@H]([C@@H](C)O)NC(=O)[C@@H]2CCCN2C(=O)[C@@H]2CCCN2C1=O` [NOTA-2286, reference compound] yielded an IC50 (FAPα) of 0.59 nM.

In the case of `CCCCCC(=O)N[C@H]1CSCc2cc(CSCCNC(=O)CN3CCN(CC(=O)O)CCN(CC(=O)O)CCN(CC(=O)O)CC3)cc(c2)CSC[C@@H](C(=O)O)NC(=O)[C@H](Cc2ccccc2C(F)(F)F)NC(=O)[C@H](CCC(N)=O)NC(=O)[C@H]([C@@H](C)O)NC(=O)[C@@H]2C[C@@H](O)CN2C(=O)[C@@H]2CCCN2C(=O)C(C)(C)NC1=O` [^68Ga-DOTA-09, metal not drawn] (Hexanoyl-C[Aib]P[Hyp]TQ[Phe(2-CF3)]C-OH; linker 1-8 via TBMB(SCH2CH2NH-DOTA)), the “tumour uptake compared with control” value (U-87 MG cells) is reported as “significantly higher”, the “tumour/kidney ratio compared with control” value (U-87 MG cells) is reported as “significantly higher” and the “tumour/kidney uptake ratio compared with control” value (U-87 MG cells) is reported as “significantly higher”. For the same compound, the tissue to tissue ratio at 0.5 h (in vivo) was 2.81 ± 0.21 and the tissue to tissue ratio at 1.5 h (in vivo) was 5.34 ± 0.92.

Compound `CCCCCC(=O)N[C@H]1CSCc2cc(CSCCNC(=O)CN3CCN(CC(=O)O)CCN(CC(=O)O)CCN(CC(=O)O)CC3)cc(c2)CSC[C@@H](C(=O)O)NC(=O)[C@H](Cc2ccccc2)NC(=O)[C@H](CCC(N)=O)NC(=O)[C@H]([C@@H](C)O)NC(=O)[C@@H]2CCCN2C(=O)[C@@H]2CCCN2C1=O` [^68Ga-FAP-2286, metal not drawn] has a tissue to tissue ratio at 1 h (in vivo) of 1.56 ± 0.11 and a tissue to tissue ratio at 3 h (in vivo) of 0.87 ± 0.14.

For `CCCCCC(=O)N[C@H]1CSCc2cc(CSCCNC(=O)CN3CCN(CC(=O)O)CCN(CC(=O)O)CC3)cc(c2)CSC[C@@H](C(=O)O)NC(=O)[C@H](Cc2ccccc2)NC(=O)[C@H](CCC(N)=O)NC(=O)[C@H]([C@@H](C)O)NC(=O)[C@@H]2CCCN2C(=O)[C@@H]2CCCN2C1=O` [^68Ga-NOTA-2286, metal not drawn, reference compound], the Tumour/kidney (U-87 MG cells; 1.5 h) was 1.77±0.31, the Tumour/kidney (U-87 MG cells; 3 h) was 2.43±1.04 and the tissue to tissue ratio at 0.5 h (in vivo) was 1.59 ± 0.55.
